The values below come from patent publication US12583859B2, “PRMT5 inhibitors and uses thereof” (California Institute of Technology, priority 2019, dated 2026).

Broadly, the IC50 is the point on the concentration scale where inhibition reaches its midpoint. Higher therefore signals weaker potency in that assay. What is called half-life is the time in which the quantity being followed falls by half. A low value points to rapid decline.

Bounds are passed on as bounds.

For data set [1], the system named is drug-resistant cell lines of Table 4. The data set is described as follows: Cell Line Growth Retardation Assay, average maximum effect in resistant cohort. To be noted: average maximum growth inhibition over resistant cohort of Table 4; 6 days; up to 1 μM. The class given is cell-based, Human. Here is the method: (§1) Cells were seeded at densities of 1,000-5,000 cells per well in 48-well tissue culture plates. After a 24 h rest period, cells were treated with compound at 1 μM, 0.2 μM, 0.04 μM, 0.008 μM, 0.0016 μM, and 0.00032 μM. A group of cells were treated with the vehicle in which the compound was prepared and served as a control. Prior to treatment, cells were counted and this count was used as a baseline for the calculation of growth inhibition. The cells were grown in the presence of compounds for 6 days and were counted on day 6. All cell counting was performed using a Synentec Cellavista plate imager. Growth inhibition was calculated as a ratio of cell population doublings in the presence of compound versus the absence of compound and expressed as the maximum percentage growth inhibition achieved across the range of tested concentrations of the compound (“maximum effect” or “ME”) calculated by fitting curves to data points from each dose-response assay using the Proc NLIN function in SAS for Windows version 9.2 (SAS Institute, Inc.).
(§2) Human cancer cell lines were grouped as “sensitive” or “resistant” to PRMT5 inhibition based on whether their growth was retarded by JNJ-64619178 (i.e., (1S,2R,3R,5R)-3-(2-(2-amino-3-bromoquinolin-7-yl)ethyl)-5-(4-amino-7H-pyrrolo[2,3-d]pyrimidin-7-yl)cyclopentane-1,2-diol) (data not shown; see Table 4). These sensitive and resistant cohorts were interrogated for response to each compound, and ME was calculated for each cell line using the same technique described above. Average MEs for the sensitive and resistant cohorts were calculated as arithmetic means of the group. “A” represents a percent of maximum effect of 60% or greater, “B” represents a percent of maximum effect of 30% to 59%, and “C” represents a percent of maximum effect of 29% or lower.

The next data set has as its target T1, PRMT5 (Homo sapiens, UniProt O14744).
T1 construct: purchased BPS Biosciences 52002L
Nature of the data set: PRMT5 Enzymatic Inhibition Assay (chemiluminescence immunoassay of histone H4 methylation). The class given is biochemical. To be noted: 1 hour at room temperature; 10 μM to 1 nM. Here is the method: A chemiluminescence immunoassay (CLIA) measuring the amount of PRMT5-mediated histone methylation was performed in a 96-well plate format according to the manufacturer's protocol (BPS Biosciences, Cat #52002L). A 96-well plate precoated with histone H4 peptide was rehydrated prior to use. A master mix containing PRMT5 substrate S-adenosylmethionine, reaction buffer, and purified PRMT5 enzyme was added to create reaction-competent wells. Wells lacking either S-adenosylmethionine substrate or PRMT5 enzyme were created as negative controls. 10 test concentrations, ranging from 100 μM to 10 nM, of the test compound were prepared using a 1:3 serial dilution in dH2O. 5 μL of each test concentration was added into a reaction-competent well. 5 μL of a 1% DMSO aqueous solution lacking inhibitor was added into negative control wells and into a reaction-competent well, creating a positive control well. The final reaction volume in each well was 50 μL, and the final concentration of the test compound in each well ranged from 10 μM to 1 nM. A known inhibitor of PRMT5, EPZ015666, was tested in parallel reaction wells as an assay validation control. The 96-well plate was incubated for 1 hour at room temperature.
Upon completion of the incubation, the reaction supernatant in each well was discarded. Wells were washed with 1×TBST and incubated in blocking buffer for 1 hour. The wells were incubated with a primary antibody recognizing methylated Arg3 residues on Histone H4 for 1 hour. The wells were washed with 1×TBST again and subsequently incubated with an HRP-conjugated secondary antibody for 30 minutes. The wells were washed again with 1×TBST, and equal parts of the chemiluminescence reagents were added into each well. Quantification of luminescence was measured in a plate reader.
Luminescence values were normalized against the positive and negative controls to convert the data into % PRMT5 activity. An inhibitor concentration-dependent curve was plotted against % PRMT5 activity and am IC50 value was determined for each compound.

Data set [2] deals with drug-sensitive cell lines of Table 4. Nature of the data set: Cell Line Growth Retardation Assay, average maximum effect in sensitive cohort. The class given is cell-based, Human. To be noted: average maximum growth inhibition over sensitive cohort of Table 4; 6 days; up to 1 μM. Here is the method:
as §1, §2

The nature of data set [3]: Measurement of Compound Metabolic Stability in hepatocytes. The class given is in vitro ADME. To be noted: mouse hepatocytes; for hepatocyte CLint at 1 μM: read-out: CLint (μL/min/10^6). Here is the method:
The metabolic stability of compounds was determined in hepatocytes from human, mice and rats. Compounds were diluted to 5 μM in Williams' Medium E from 10 mM stock solutions. 10 μL of each compound was aliquoted into a well of a 96-well plate and reactions were started by aliquoting 40 μL of a 625,000 cells/mL suspension into each well. The plate was incubated at 37° C. with 5% CO2. At each corresponding time point, the reaction was stopped by quenching with ACN containing internal standards (IS) at a 1:3. Plates were shaken at 500 rpm for 10 min, and then centrifuged at 3,220×g for 20 minutes. Supernatants were transferred to another 96-well plate containing a dilution solution. Supernatants were analyzed by LC/MS/MS. The Half-lives (in minutes) and CLint values (in μL/min/10^6 cells) of example compounds, as measured in mouse hepatocytes, are presented in Table 3. […] For CLint, “A” represents greater than 100 μL/min/10^6 cells, “B” represents 50 to 100 μL/min/10^6 cells, and “C” represents less than 50 μL/min/10^6 cells.
The remaining percent of compound after incubation was calculated using the following equation: % Remaining Compound=Peak Area Ratios of Tested Compound vs. Internal Standard at End Point • Peak Area Ratios of Tested Compound vs. Internal Standard at Start Point Compound half-life and CLint were calculated using the following equations: Ct=C0*e^−k*t(first order kinetics); when […], t1/2=ln 2/k=0.693/k; and CLint=k/(1,000,000 cells/mL) Activity-Guided Selection of Inhibitors

T1 sequence (O14744 2-637 limits assumed): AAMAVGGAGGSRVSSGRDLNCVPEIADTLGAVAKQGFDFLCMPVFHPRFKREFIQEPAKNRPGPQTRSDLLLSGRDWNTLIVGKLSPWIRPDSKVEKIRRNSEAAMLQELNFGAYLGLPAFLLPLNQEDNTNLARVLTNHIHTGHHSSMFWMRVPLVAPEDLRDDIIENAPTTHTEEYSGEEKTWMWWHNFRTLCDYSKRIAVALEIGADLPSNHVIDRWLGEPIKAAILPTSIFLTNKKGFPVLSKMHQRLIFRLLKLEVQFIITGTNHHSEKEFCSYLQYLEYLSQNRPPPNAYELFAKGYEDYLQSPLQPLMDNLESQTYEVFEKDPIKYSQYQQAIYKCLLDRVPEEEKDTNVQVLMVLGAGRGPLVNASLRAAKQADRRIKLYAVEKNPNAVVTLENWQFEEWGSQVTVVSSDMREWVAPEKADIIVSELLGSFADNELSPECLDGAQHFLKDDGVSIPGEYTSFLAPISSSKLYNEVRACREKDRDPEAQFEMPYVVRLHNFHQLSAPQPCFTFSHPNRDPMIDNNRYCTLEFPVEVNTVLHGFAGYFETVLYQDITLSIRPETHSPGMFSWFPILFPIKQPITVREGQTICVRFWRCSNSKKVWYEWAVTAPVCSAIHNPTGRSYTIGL
T1 sequence (Q9BQA1 2-342 partner limits assumed): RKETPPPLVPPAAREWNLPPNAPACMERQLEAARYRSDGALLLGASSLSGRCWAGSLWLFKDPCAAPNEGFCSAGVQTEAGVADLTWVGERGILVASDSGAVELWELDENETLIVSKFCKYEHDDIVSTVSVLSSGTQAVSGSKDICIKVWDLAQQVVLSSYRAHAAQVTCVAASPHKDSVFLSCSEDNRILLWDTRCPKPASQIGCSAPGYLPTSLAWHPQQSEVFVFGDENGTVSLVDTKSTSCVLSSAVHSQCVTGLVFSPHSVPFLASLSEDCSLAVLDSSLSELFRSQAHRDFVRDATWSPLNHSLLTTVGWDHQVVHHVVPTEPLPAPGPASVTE

Regarding `O[C@H]1[C@H](n2ccc3c(Cl)ncnc32)C[C@@]2(CNC(c3ccc4cc(Br)c(Cl)nc4c3)C2)[C@H]1O` (single isomer, unassigned) [Compound 1], the “AvgRes ME (%)” value in data set [1] is listed as “C (a percent of maximum effect of 29% or lower)”. This compound also yielded an IC50 against PRMT5 greater than 500 nM. Also, the “AvgSens ME (%)” value in data set [2] is given as “C (a percent of maximum effect of 29% or lower)”.

Regarding `O[C@H]1[C@H](n2ccc3c(Cl)ncnc32)C[C@@]2(CNC(c3ccc4cc(Br)c(Cl)nc4c3)C2)[C@H]1O` (single isomer, unassigned) [Compound 2], the “AvgRes ME (%)” value in data set [1] is listed as “C (a percent of maximum effect of 29% or lower)”. Besides, the IC50 on PRMT5 is greater than 500 nM. Moreover, the “AvgSens ME (%)” value in data set [2] is given as “C (a percent of maximum effect of 29% or lower)”.

Turning to `Nc1ncnc2c1ccn2[C@@H]1C[C@@]2(CNC(c3ccc4cc(Br)c(Cl)nc4c3)C2)[C@@H](O)[C@H]1O` (single isomer, unassigned) [Compound 3], the “AvgRes ME (%)” value in data set [1] is “C (a percent of maximum effect of 29% or lower)”. Besides, at PRMT5, the IC50 is greater than 500 nM. Further, the “AvgSens ME (%)” value in data set [2] was “C (a percent of maximum effect of 29% or lower)”.

With `Nc1ncnc2c1ccn2[C@@H]1C[C@@]2(CNC(c3ccc4cc(Br)c(Cl)nc4c3)C2)[C@@H](O)[C@H]1O` (single isomer, unassigned) [Compound 4], the “AvgRes ME (%)” value in data set [1] is recorded as “C (a percent of maximum effect of 29% or lower)”. Further, the IC50 against PRMT5 was 101 to 500 nM. Moreover, in data set [2], the “AvgSens ME (%)” value is on record as “C (a percent of maximum effect of 29% or lower)”.

Consider `CN1C[C@]2(CC1c1ccc3cc(Br)c(N)nc3c1)C[C@@H](n1ccc3c(N)ncnc31)[C@H](O)[C@@H]2O` (single isomer, unassigned) [Compound 5], for which the “AvgRes ME (%)” value in data set [1] is reported as “C (a percent of maximum effect of 29% or lower)”. The 50% inhibitory concentration (IC50) on PRMT5 was 101 to 500 nM. The “AvgSens ME (%)” value in data set [2] is “C (a percent of maximum effect of 29% or lower)”.

Take `CN1C[C@]2(CC1c1ccc3cc(Br)c(N)nc3c1)C[C@@H](n1ccc3c(N)ncnc31)[C@H](O)[C@@H]2O` (single isomer, unassigned) [Compound 6]: the “AvgRes ME (%)” value in data set [1] was “C (a percent of maximum effect of 29% or lower)”. Also, on PRMT5, the IC50 was greater than 500 nM. Besides, the “AvgSens ME (%)” value in data set [2] was “C (a percent of maximum effect of 29% or lower)”.

For the compound `Nc1nc2cc(C3C[C@@]4(CN3)C[C@@H](n3ccc5c(N)ncnc53)[C@H](O)[C@@H]4O)ccc2cc1Br` (single isomer, unassigned) [Compound 7], the “AvgRes ME (%)” value in data set [1] is on record as “B (a percent of maximum effect of 30% to 59%)”. The same compound yielded an IC50 against PRMT5 of no more than 100 nM. Moreover, in data set [2], the “AvgSens ME (%)” value was “A (a percent of maximum effect of 60% or greater)”.

As to `Nc1nc2cc(C3C[C@@]4(CN3)C[C@@H](n3ccc5c(Cl)ncnc53)[C@H](O)[C@@H]4O)ccc2cc1Br` (single isomer, unassigned) [Compound 10], the “AvgRes ME (%)” value in data set [1] is “C (a percent of maximum effect of 29% or lower)”. On PRMT5, this compound gave an IC50 of 101 to 500 nM. In data set [2], the “AvgSens ME (%)” value was “C (a percent of maximum effect of 29% or lower)”.

In the case of `Nc1nc2cc(C3C[C@@]4(CO3)C[C@@H](n3ccc5c(N)ncnc53)[C@H](O)[C@@H]4O)ccc2cc1Br` (single isomer, unassigned) [Compound 16], the “AvgRes ME (%)” value in data set [1] is “B (a percent of maximum effect of 30% to 59%)”. For the same compound, the IC50 against PRMT5 was no more than 100 nM. Also, the “AvgSens ME (%)” value in data set [2] is listed as “A (a percent of maximum effect of 60% or greater)”.

Regarding `Nc1nc2cc(C3C[C@@]4(CO3)C[C@@H](n3ccc5c(Cl)ncnc53)[C@H](O)[C@@H]4O)ccc2cc1Br` (stereo partly shown) [Compound 18], in data set [1], the “AvgRes ME (%)” value was “C (a percent of maximum effect of 29% or lower)”. In addition, at PRMT5, the IC50 is no more than 100 nM. Also, the “AvgSens ME (%)” value in data set [2] was “C (a percent of maximum effect of 29% or lower)”.

Take `Nc1ccc2ccc([C@H]3C[C@@]4(CO3)C[C@@H](n3ccc5c(Cl)ncnc53)[C@H](O)[C@@H]4O)cc2n1` [Compound 20]: in data set [1], the “AvgRes ME (%)” value is “B (a percent of maximum effect of 30% to 59%)”. For the same compound, the IC50 against PRMT5 was no more than 100 nM. The “AvgSens ME (%)” value in data set [2] was “A (a percent of maximum effect of 60% or greater)”. Moreover, in data set [3], the half-life at 1 μM is less than 15 min and the hepatocyte CLint at 1 μM is greater than 100 µL/min/1e6 cells.

Take `Nc1ccc2ccc([C@H]3C[C@@]4(CO3)C[C@@H](n3ccc5cncnc53)[C@H](O)[C@@H]4O)cc2n1` [Compound 21]: the “AvgRes ME (%)” value in data set [1] is “B (a percent of maximum effect of 30% to 59%)”. This compound also gave an IC50 against PRMT5 of no more than 100 nM. Besides, in data set [2], the “AvgSens ME (%)” value is “A (a percent of maximum effect of 60% or greater)”. Also, in data set [3], the half-life at 1 μM was less than 15 min and the hepatocyte CLint at 1 μM is greater than 100 µL/min/1e6 cells.

Turning to `CC(C)Nc1ncnc2c1ccn2[C@@H]1C[C@@]2(CO[C@@H](c3ccc4cc(Br)c(N)nc4c3)C2)[C@@H](O)[C@H]1O` [Compound 25], in data set [1], the “AvgRes ME (%)” value is “C (a percent of maximum effect of 29% or lower)”. This compound returned an IC50 on PRMT5 of no more than 100 nM. Besides, the “AvgSens ME (%)” value in data set [2] is listed as “B (a percent of maximum effect of 30% to 59%)”.

With `CCCNc1ncnc2c1ccn2[C@@H]1C[C@@]2(CO[C@@H](c3ccc4cc(Br)c(N)nc4c3)C2)[C@@H](O)[C@H]1O` [Compound 26], in data set [1], the “AvgRes ME (%)” value was “B (a percent of maximum effect of 30% to 59%)”. At PRMT5, this compound gave an IC50 of no more than 100 nM. In data set [2], the “AvgSens ME (%)” value is “B (a percent of maximum effect of 30% to 59%)”.
